Like-named read-outs stand apart in the source and are kept apart here.
Experiments:
[1] = molecular target: T1, Recombinant STAT3 protein (STAT3 (G127-I722)) (Homo sapiens, UniProt P40763); experiment: STAT3 Fluorescence Polarization (FP) Assay; type: binding; settings: probe 5-FAM-GpYLPQTV-NH2 2 nM, 45-minute incubation
T1 construct: Recombinant STAT3 protein (STAT3 (G127-I722))
Summary of the method: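 In this competition FP format, STAT3 residues G127-I722 (25 nM) and 2 nM 5-FAM-GpYLPQTV-NH2 met test compounds for 45 min at room temperature. IC50 values result from fitting mP signal against log concentration by nonlinear regression.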

[2] = molecular target: T2, Recombinant STAT6 protein (STAT6 (W123-T658)) (Homo sapiens, UniProt P42226); experiment: STAT6 Fluorescence Polarization (FP) Assay; type: binding; settings: probe 5-FAM-Ap[…]-NH2 2 nM, 45-minute incubation
T2 construct: Recombinant STAT6 protein (STAT6 (W123-T658))
T2 sequence (P42226 123-658): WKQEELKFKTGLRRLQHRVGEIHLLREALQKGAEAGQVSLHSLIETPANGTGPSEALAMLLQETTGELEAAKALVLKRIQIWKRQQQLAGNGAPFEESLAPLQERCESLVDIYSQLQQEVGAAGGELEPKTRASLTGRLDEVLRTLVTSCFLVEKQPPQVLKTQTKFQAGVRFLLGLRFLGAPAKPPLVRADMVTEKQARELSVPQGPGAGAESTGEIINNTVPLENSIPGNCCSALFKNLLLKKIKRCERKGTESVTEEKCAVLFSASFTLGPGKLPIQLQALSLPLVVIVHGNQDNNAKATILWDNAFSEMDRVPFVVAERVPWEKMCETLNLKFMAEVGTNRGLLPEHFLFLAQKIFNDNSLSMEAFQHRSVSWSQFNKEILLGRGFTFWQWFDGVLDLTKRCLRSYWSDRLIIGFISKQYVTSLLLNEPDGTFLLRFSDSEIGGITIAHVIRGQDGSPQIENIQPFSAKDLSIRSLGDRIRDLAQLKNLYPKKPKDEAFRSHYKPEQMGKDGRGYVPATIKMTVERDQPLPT
Summary of the method: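 STAT6 (W123-T658) at 250 nM was mixed with 2 nM 5-FAM-labeled phosphotyrosine peptide probe in HEPES pH 7.4 buffer with NaCl, EDTA, Tween 20 and DTT, then added to serially diluted compounds at 1% DMSO final. Polarization was read after 45 min at room temperature; IC50 came from nonlinear regression of mP versus log concentration.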

[3] = STAT3 (G127-I722) 25 nM, read-out: STAT3 (FP assay IC50 class)
[4] = STAT6 (W123-T658) 250 nM, read-out: STAT6 (FP assay IC50 class)
[5] = STAT3 25 nM, read-out: STAT3 (FP assay IC50)
[6] = STAT6 250 nM, read-out: STAT6 (FP assay IC50)

T1 sequence (P40763 127-722): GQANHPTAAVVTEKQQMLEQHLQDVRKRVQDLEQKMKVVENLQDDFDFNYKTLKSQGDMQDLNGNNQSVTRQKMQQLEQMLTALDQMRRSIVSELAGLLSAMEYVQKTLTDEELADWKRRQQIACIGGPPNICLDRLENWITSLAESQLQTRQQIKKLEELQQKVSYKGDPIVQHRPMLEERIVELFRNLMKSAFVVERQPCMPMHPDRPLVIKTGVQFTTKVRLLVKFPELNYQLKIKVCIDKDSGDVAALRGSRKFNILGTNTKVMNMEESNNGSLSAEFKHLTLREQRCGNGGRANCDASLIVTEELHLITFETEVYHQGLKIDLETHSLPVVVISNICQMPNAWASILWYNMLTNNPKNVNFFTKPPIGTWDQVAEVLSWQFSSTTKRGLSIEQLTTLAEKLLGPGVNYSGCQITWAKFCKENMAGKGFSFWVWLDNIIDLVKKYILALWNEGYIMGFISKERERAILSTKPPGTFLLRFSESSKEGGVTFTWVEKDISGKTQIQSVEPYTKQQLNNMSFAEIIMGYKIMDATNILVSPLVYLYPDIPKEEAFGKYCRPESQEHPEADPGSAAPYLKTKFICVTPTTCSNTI

| IC50 [1, 3] | IC50 [2, 4] | IC50 [1, 5] | IC50 [2, 6] | Compound |
| --- | --- | --- | --- | --- |
| 1 to 10 µM | 3 to 30 µM | – | – | Cn1cncc(C2CN(C(=O)[C@@H]3CC[C@@H]4CCC[C@H](NC(=O)c5cc6cc(C(F)P(=O)(O)O)ccc6s5)C(=O)N43)C2)c1=O (stereo partly drawn) [Compound 624, (fluoro(2-(((3S,6S,9aS)-3-(3-(1-methyl-6-oxo-1,6-dihydropyrimidin-5-yl)azetidine-1-carbonyl)-5-oxooctahydro-1H-pyrrolo[1,2-a]azepin-6-yl)carbamoyl)benzo [b]thiophen-5-yl)methyl) phosphonic acid] |
| 1 to 10 µM | ≤ 0.3 µM | – | – | N#C[C@@H]1[C@@H](c2ccccc2)CN(C(=O)[C@@H]2CC[C@@H]3C[C@@H](N4CCC4)CC[C@H](NC(=O)c4cc5cc([C@H](F)P(=O)(O)O)ccc5s4)C(=O)N32)C12CC2 (single isomer, unassigned) [Compound 934] |
| < 0.1 µM | 3 to 30 µM | – | – | Cc1ccncc1C1CN(C(=O)[C@@H]2CC[C@@H]3C[C@H](C)C[C@H](NC(=O)c4cc5cc([C@H](F)P(=O)(O)O)ccc5s4)C(=O)N32)C1 (single isomer, unassigned) [Compound 740] |

Continued, molecule first:

| Compound | IC50 [1, 3] | IC50 [2, 4] | IC50 [1, 5] | IC50 [2, 6] |
| --- | --- | --- | --- | --- |
| O=C(N[C@H]1CCCC[C@H]2CC[C@@H](C(=O)NCc3cnc4[nH]cnc4c3)N2C1=O)c1cc2cc(C(F)P(=O)(O)O)ccc2s1 (stereo partly drawn) [Compound 521, ((2-(((3S,6S,10aS)-3-(((3H-imidazo[4,5-b]pyridin-6-yl)methyl)carbamoyl)-5-oxodecahydropyrrolo[1,2-a]azocin-6-yl)carbamoyl)benzo[b]thiophen-5-yl)fluoromethyl)phosphonic acid] | < 0.1 µM | 3 to 30 µM | – | – |
| CC(F)(c1ccc2sc(C(=O)N[C@H]3CCC[C@H]4CC[C@@H](C(=O)N5CC(c6cccnc6)C5)N4C3=O)cc2c1)P(=O)(O)O (stereo partly drawn) [Compound 221, (1-fluoro-1-(2-(((3S,6S,9aS)-5-oxo-3-(3-(pyridin-3-yl)azetidine-1-carbonyl)octahydro-1H-pyrrolo[1,2-a]azepin-6-yl)carbamoyl)benzo[b]thiophen-5-yl)ethyl)phosphonic acid] | < 0.1 µM | 3 to 30 µM | – | – |
| N#C[C@H]1[C@H](c2ccccc2)CN(C(=O)[C@@H]2CC[C@@H]3CCCC[C@H](NC(=O)c4cc5cc(C(F)P(=O)(O)O)ccc5s4)C(=O)N32)C12CC2 (relative stereo) [Compound 229, ((2-(((3S,6S,10aS)-3-((rel-trans)-7-cyano-6-phenyl-4-azaspiro[2.4]heptane-4-carbonyl)-5-oxodecahydropyrrolo[1,2-a]azocin-6-yl)carbamoyl)benzo[b]thiophen-5-yl)fluoromethyl)phosphonic acid] | 1 to 10 µM | ≤ 0.3 µM | – | – |
| COC1(c2cccnc2)CN(C(=O)[C@@H]2CC[C@@H]3CCC[C@H](NC(=O)c4cc5cc(C(F)(F)P(=O)(O)O)ccc5s4)C(=O)N32)C1 [Compound 498, (difluoro(2-(((3S,6S,9aS)-3-(3-methoxy-3-(pyridin-3-yl)azetidine-1-carbonyl)-5-oxooctahydro-1H-pyrrolo[1,2-a]azepin-6-yl)carbamoyl)benzo[b]thiophen-5-yl)methyl)phosphonic acid] | < 0.1 µM | 0.3 to 3 µM | – | – |
| O=C(N[C@H]1CCC[C@H]2CC[C@@H](C(=O)N3CC(c4ccccn4)C3)N2C1=O)c1cc2cc(C(F)(F)P(=O)(O)O)ccc2s1 [Compound 108, (difluoro(2-(((3S,6S,9aS)-5-oxo-3-(3-(pyridin-2-yl)azetidine-1-carbonyl)octahydro-1H-pyrrolo[1,2-a]azepin-6-yl)carbamoyl)benzo[b]thiophen-5-yl)methyl) phosphonic acid] | – | – | < 0.1 µM | 0.3 to 3 µM |
| O=C(N[C@H]1C[C@@H](O)CC[C@H]2CC[C@@H](C(=O)N3CC(C(=O)N4CCOCC4)C3)N2C1=O)c1cc2cc(C(F)(F)P(=O)(O)O)ccc2s1 [Compound 4, (difluoro(2-(((3S,6S,8S,10aR)-8-hydroxy-3-(3-(morpholine-4-carbonyl)azetidine-1-carbonyl)-5-oxodecahydropyrrolo [1,2-a]azocin-6-yl)carbamoyl)benzo[b]thiophen-5-yl)methyl) phosphonic acid] | – | – | 0.1 to 1 µM | 3 to 30 µM |

— patent US20250215029A1 (Recludix Pharma, Inc., priority 2022, published 2025)
